Data on 14 molecules can be found in patent US8889854B2, “C-17 bicyclic amines of triterpenoids with HIV maturation inhibitory activity” (priority 2012, dated 2014).

As a reminder, the EC50 is the concentration that produces a half-maximal response.

For the first assay, the system named is recombinant NL4-3 virus (Renilla luciferase in nef, Gag P373S; NLRluc). As to the kind of experiment: HIV Cell Culture Assay (luciferase reporter virus in MT-2 cells). It counts as cell-based. The settings on record: MT-2 cells infected for 4-5 days with NLRluc recombinants; luciferase activity. As for the experimental part:
MT-2 cells and 293T cells were obtained from the NIH AIDS Research and Reference Reagent Program. MT-2 cells were propagated in RPMI 1640 media supplemented with 10% heat inactivated fetal bovine serum, […]. The 293T cells were propagated in DMEM media supplemented with 10% heat inactivated fetal bovine serum (FBS), 100 units/mL penicillin G and 100 μg/mL streptomycin. The proviral DNA clone of NL4-3 was obtained from the NIH AIDS Research and Reference Reagent Program. A recombinant NL4-3 virus, in which a section of the nef gene from NL4-3 was replaced with the Renilla luciferase gene, was used as a reference virus. In addition, residue Gag P373 was converted to P373S. Briefly, the recombinant virus was prepared by transfection of the altered proviral clone of NL4-3. Transfections were performed in 293T cells using LipofectAMINE PLUS from Invitrogen (Carlsbad, Calif.), according to manufacturer's instruction. The virus was titered in MT-2 cells using luciferase enzyme activity as a marker. Luciferase was quantitated using the Dual Luciferase kit from Promega (Madison, Wis.), with modifications to the manufacturer's protocol. The diluted Passive Lysis solution was pre-mixed with the re-suspended Luciferase Assay Reagent and the re-suspended Stop & Glo Substrate (2:1:1 ratio). Fifty (50) μL of the mixture was added to each aspirated well on assay plates and luciferase activity was measured immediately on a Wallac TriLux (Perkin-Elmer). Antiviral activities of inhibitors toward the recombinant virus were quantified by measuring luciferase activity in cells infected for 4-5 days with NLRluc recombinants in the presence serial dilutions of the inhibitor. Table 1 is the key for the data in Table 2.
Take `C=C(C)[C@@H]1CC[C@]2(NCCN3C[C@@H]4C[C@H]3CO4)CC[C@]3(C)[C@H](CC[C@@H]4[C@@]5(C)CC=C(C6=CC7C(C6)C7C(=O)O)C(C)(C)[C@@H]5CC[C@]43C)[C@@H]12` (single isomer, unassigned) [Example B7]: the half-maximal effective concentration (EC50) came out at 2.28 nM.

The assay is the same for the next values; noted with them: MT-2 cells infected for 4-5 days with NLRluc recombinants; luciferase activity; reported as group A/B.
As to `C=C(C)[C@@H]1CC[C@]2(NCCN3C[C@H]4C[C@@H]3CS4(=O)=O)CC[C@]3(C)[C@H](CC[C@@H]4[C@@]5(C)CC=C(C6=CC7C(C6)C7C(=O)O)C(C)(C)[C@@H]5CC[C@]43C)[C@@H]12` (single isomer, unassigned) [Example B5], the concentration giving a half-maximal response (EC50) is under 100 nM.

Staying with this assay, now noted: Renilla, NL43, MT-2 cells infected for 4-5 days with NLRluc recombinants; luciferase activity.
For `C=C(C)[C@@H]1CC[C@]2(NCCN3C[C@@H]4C[C@H]3CO4)CC[C@]3(C)[C@H](CC[C@@H]4[C@@]5(C)CC=C(C6=CC7C(C6)C7C(=O)O)C(C)(C)[C@@H]5CC[C@]43C)[C@@H]12` (single isomer, unassigned) [Example B6], the concentration giving a half-maximal response (EC50) came out at 1.42 nM.
Turning to `C=C(C)[C@@H]1CC[C@]2(NC(=O)CN3C[C@@H]4CC[C@H]3C4)CC[C@]3(C)[C@H](CC[C@@H]4[C@@]5(C)CC=C(c6ccc(C(=O)O)cc6)C(C)(C)[C@@H]5CC[C@]43C)[C@@H]12` [Example 1, 4-((1R,3aS,5aR,5bR,7aR,11aS,11bR,13aR,13bR)-3a-(2-((1S,4R)-2-azabicyclo[2.2.1]heptan-2-yl)acetamido)-5a,5b,8,8,11a-pentamethyl-1-(prop-1-en-2-yl)-2,3,3a,4,5,5a,5b,6,7,7a,8,11,11a,11b,12,13,13a,13b-octadecahydro-1H-cyclopenta[a]chrysen-9-yl)benzoic acid], the concentration giving a half-maximal response (EC50) was found to be 3.65 nM.
Take `C=C(C)[C@@H]1CC[C@]2(NC(=O)CN3C[C@@H]4C[C@H]3CS4(=O)=O)CC[C@]3(C)[C@H](CC[C@@H]4[C@@]5(C)CC=C(c6ccc(C(=O)O)cc6)C(C)(C)[C@@H]5CC[C@]43C)[C@@H]12` [Example 2, 4-((1R,3aS,5aR,5bR,7aR,11aS,11bR,13aR,13bR)-3a-(2-((1S,4S)-2,2-dioxido-2-thia-5-azabicyclo[2.2.1]heptan-5-yl)acetamido)-5a,5b,8,8,11a-pentamethyl-1-(prop-1-en-2-yl)-2,3,3a,4,5,5a,5b,6,7,7a,8,11,11a,11b,12,13,13a,13b-octadecahydro-1H-cyclopenta[a]chrysen-9-yl)benzoic acid]: the concentration for a half-maximal effect (EC50) was 1.93 nM.
Regarding `C=C(C)[C@@H]1CC[C@]2(NCCN3C[C@@H]4C[C@H]3CN4Cc3ccccc3)CC[C@]3(C)[C@H](CC[C@@H]4[C@@]5(C)CC=C(c6ccc(C(=O)O)cc6)C(C)(C)[C@@H]5CC[C@]43C)[C@@H]12` [Example 9, 4-((1R,3aS,5aR,5bR,7aR,11aS,11bR,13aR,13bR)-3a-((2-((1S,4S)-5-benzyl-2,5-diazabicyclo[2.2.1]heptan-2-yl)ethyl)amino)-5a,5b,8,8,11a-pentamethyl-1-(prop-1-en-2-yl)-2,3,3a,4,5,5a,5b,6,7,7a,8,11,11a,11b,12,13,13a,13b-octadecahydro-1H-cyclopenta[a]chrysen-9-yl)benzoic acid], the EC50 came to 6.09 nM.
On the same count and under the same terms, with `C=C(C)[C@@H]1CC[C@]2(NCCN3C[C@@H]4C[C@H]3CN4)CC[C@]3(C)[C@H](CC[C@@H]4[C@@]5(C)CC=C(c6ccc(C(=O)O)cc6)C(C)(C)[C@@H]5CC[C@]43C)[C@@H]12` [Example 10, 4-((1R,3aS,5aR,5bR,7aR,11aS,11bR,13aR,13bR)-3a-((2-((1S,4S)-2,5-diazabicyclo[2.2.1]heptan-2-yl)ethyl)amino)-5a,5b,8,8,11a-pentamethyl-1-(prop-1-en-2-yl)-2,3,3a,4,5,5a,5b,6,7,7a,8,11,11a,11b,12,13,13a,13b-octadecahydro-1H-cyclopenta[a]chrysen-9-yl)benzoic acid] the figure was 1.21 nM.

The assay is the same for the next values; noted with them: Renilla, NL43, MT-2 cells infected for 4-5 days with NLRluc recombinants; luciferase activity; reported as group A/B.
In the case of `C=C(C)[C@@H]1CC[C@]2(NCCN3C[C@H]4C[C@@H]3CS4(=O)=O)CC[C@]3(C)[C@H](CC[C@@H]4[C@@]5(C)CC=C(C6=CC7C(C6)C7C(=O)O)C(C)(C)[C@@H]5CC[C@]43C)[C@@H]12` (single isomer, unassigned) [Example B4], the 50% effective concentration (EC50) was under 100 nM.
The same measure, in the same setting: for `C=C(C)[C@@H]1CC[C@]2(NC(=O)CN3C[C@@H]4C[C@H]3CN4Cc3ccccc3)CC[C@]3(C)[C@H](CC[C@@H]4[C@@]5(C)CC=C(c6ccc(C(=O)O)cc6)C(C)(C)[C@@H]5CC[C@]43C)[C@@H]12` [Example 3, 4-((1R,3aS,5aR,5bR,7aR,11aS,11bR,13aR,13bR)-3a-(2-((1S,4S)-5-benzyl-2,5-diazabicyclo[2.2.1]heptan-2-yl)acetamido)-5a,5b,8,8,11a-pentamethyl-1-(prop-1-en-2-yl)-2,3,3a,4,5,5a,5b,6,7,7a,8,11,11a,11b,12,13,13a,13b-octadecahydro-1H-cyclopenta[a]chrysen-9-yl)benzoic acid] the value was under 100 nM; for `CC(C)[C@@H]1CC[C@]2(NC(=O)CN3C[C@@H]4C[C@H]3CS4(=O)=O)CC[C@]3(C)[C@H](CC[C@@H]4[C@@]5(C)CC=C(c6ccc(C(=O)O)cc6)C(C)(C)[C@@H]5CC[C@]43C)[C@@H]12` [Example 4, 4-((1S,3aS,5aR,5bR,7aR,11aS,11bR,13aR,13bR)-3a-(2-((1S,4S)-2,2-dioxido-2-thia-5-azabicyclo[2.2.1]heptan-5-yl)acetamido)-1-isopropyl-5a,5b,8,8,11a-pentamethyl-2,3,3a,4,5,5a,5b,6,7,7a,8,11,11a,11b,12,13,13a,13b-octadecahydro-1H-cyclopenta[a]chrysen-9-yl)benzoic acid], under 100 nM.
With `C=C(C)[C@@H]1CC[C@]2(NCCN3C[C@@H]4C[C@H]3CS4(=O)=O)CC[C@]3(C)[C@H](CC[C@@H]4[C@@]5(C)CC=C(c6ccc(C(=O)O)cc6)C(C)(C)[C@@H]5CC[C@]43C)[C@@H]12` [Example 5, 4-((1R,3aS,5aR,5bR,7aR,11aS,11bR,13aR,13bR)-3a-((2-((1S,4S)-2,2-dioxido-2-thia-5-azabicyclo[2.2.1]heptan-5-yl)ethyl)amino)-5a,5b,8,8,11a-pentamethyl-1-(prop-1-en-2-yl)-2,3,3a,4,5,5a,5b,6,7,7a,8,11,11a,11b,12,13,13a,13b-octadecahydro-1H-cyclopenta[a]chrysen-9-yl)benzoic acid], the concentration giving a half-maximal response (EC50) was under 100 nM.
On the same count and under the same terms, with `C=C(C)[C@@H]1CC[C@]2(N(CCO)CCN3C[C@@H]4C[C@H]3CS4(=O)=O)CC[C@]3(C)[C@H](CC[C@@H]4[C@@]5(C)CC=C(c6ccc(C(=O)O)cc6)C(C)(C)[C@@H]5CC[C@]43C)[C@@H]12` [Example 6, 4-((1R,3aS,5aR,5bR,7aR,11aS,11bR,13aR,13bR)-3a-((2-((1S,4S)-2,2-dioxido-2-thia-5-azabicyclo[2.2.1]heptan-5-yl)ethyl)(2-hydroxyethyl)amino)-5a,5b,8,8,11a-pentamethyl-1-(prop-1-en-2-yl)-2,3,3a,4,5,5a,5b,6,7,7a,8,11,11a,11b,12,13,13a,13b-octadecahydro-1H-cyclopenta[a]chrysen-9-yl)benzoic acid] the figure was under 100 nM; with `C=C(C)[C@@H]1CC[C@]2(NCCN3C[C@@H]4C[C@H]3CO4)CC[C@]3(C)[C@H](CC[C@@H]4[C@@]5(C)CC=C(c6ccc(C(=O)O)cc6)C(C)(C)[C@@H]5CC[C@]43C)[C@@H]12` [Example 7, 4-((1R,3aS,5aR,5bR,7aR,11aS,11bR,13aR,13bR)-3a-((2-((1S,4S)-2-oxa-5-azabicyclo[2.2.1]heptan-5-yl)ethyl)amino)-5a,5b,8,8,11a-pentamethyl-1-(prop-1-en-2-yl)-2,3,3a,4,5,5a,5b,6,7,7a,8,11,11a,11b,12,13,13a,13b-octadecahydro-1H-cyclopenta[a]chrysen-9-yl)benzoic acid], under 100 nM.
The same measure, in the same setting: for `CC(C)[C@@H]1CC[C@]2(NCCN3C[C@@H]4C[C@H]3CO4)CC[C@]3(C)[C@H](CC[C@@H]4[C@@]5(C)CC=C(c6ccc(C(=O)O)cc6)C(C)(C)[C@@H]5CC[C@]43C)[C@@H]12` [Example 8, 4-((1S,3aS,5aR,5bR,7aR,11aS,11bR,13aR,13bR)-3a-((2-((1S,4S)-2-oxa-5-azabicyclo[2.2.1]heptan-5-yl)ethyl)amino)-1-isopropyl-5a,5b,8,8,11a-pentamethyl-2,3,3a,4,5,5a,5b,6,7,7a,8,11,11a,11b,12,13,13a,13b-octadecahydro-1H-cyclopenta[a]chrysen-9-yl)benzoic acid] the value was under 100 nM.
